Measured values from BindingDB's records for doi:10.1016/j.bioorg.2017.01.015 (Universiti Teknologi MARA (UiTM), 2017).

Molecular target: T1, Beta-glucuronidase (Homo sapiens, UniProt P08236)
T1 sequence (P08236 whole entry): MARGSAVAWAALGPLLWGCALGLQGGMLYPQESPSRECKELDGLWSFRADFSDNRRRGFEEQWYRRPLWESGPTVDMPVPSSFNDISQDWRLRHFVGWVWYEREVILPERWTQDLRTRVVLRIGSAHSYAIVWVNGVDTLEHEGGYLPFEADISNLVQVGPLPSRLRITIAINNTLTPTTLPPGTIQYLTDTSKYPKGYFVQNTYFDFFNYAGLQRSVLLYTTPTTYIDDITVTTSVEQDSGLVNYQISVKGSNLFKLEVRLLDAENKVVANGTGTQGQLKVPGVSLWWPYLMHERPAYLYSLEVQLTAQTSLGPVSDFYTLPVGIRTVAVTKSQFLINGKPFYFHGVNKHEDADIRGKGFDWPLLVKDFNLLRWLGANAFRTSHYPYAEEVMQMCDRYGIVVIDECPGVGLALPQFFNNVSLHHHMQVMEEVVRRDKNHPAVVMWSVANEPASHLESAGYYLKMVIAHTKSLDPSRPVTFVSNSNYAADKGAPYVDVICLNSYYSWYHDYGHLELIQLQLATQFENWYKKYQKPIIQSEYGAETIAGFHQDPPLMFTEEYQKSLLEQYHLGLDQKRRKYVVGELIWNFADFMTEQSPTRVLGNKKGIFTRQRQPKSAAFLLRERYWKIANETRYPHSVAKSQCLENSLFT
Assay: β-Glucuronidase Assay
Procedure: 250 μL was the volume of total reaction. Reaction mixture containing 5 μL of test compound solution, 185 μL of 0.1 M acetate buffer and 10 μL of enzyme solution were incubated for 30 min at 37 °C. […] To avoid precipitation compound concentration were decreased and the volume of reaction was high (200 μL). Precipitation probability was less thus addition of detergents was not needed.

| Compound | IC50 |
| --- | --- |
| COc1ccccc1-c1nnc(-c2ccc(C(=O)NNS(=O)(=O)c3ccccc3Br)cc2)o1 [2-Bromo-N'-(4-(5-(2-methoxyphenyl)-1,3,4-oxadiazol-2yl)benzoyl)benzenesulfonohydrazide (7)] | 38.5 µM |
| COc1ccccc1-c1nnc(-c2ccc(C(=O)NNS(=O)(=O)c3ccccc3F)cc2)o1 [2-Fluoro-N'-(4-(5-(2-methoxyphenyl)-1,3,4-oxadiazol-2yl)benzoyl)benzenesulfonohydrazide (4)] | 10.3 µM |
| COc1ccccc1-c1nnc(-c2ccc(C(=O)NNS(=O)(=O)c3cccc(Br)c3)cc2)o1 [3-Bromo-N'-(4-(5-(2-methoxyphenyl)-1,3,4-oxadiazol-2yl)benzoyl)benzenesulfonohydrazide (9)] | 58.2 µM |
| COc1ccccc1-c1nnc(-c2ccc(C(=O)NNS(=O)(=O)c3cccc(F)c3)cc2)o1 [3-Fluoro-N'-(4-(5-(2-methoxyphenyl)-1,3,4-oxadiazol-2yl)benzoyl)benzenesulfonohydrazide (5)] | 28.1 µM |
| COc1ccccc1-c1nnc(-c2ccc(C(=O)NNS(=O)(=O)c3ccc(C)cc3)cc2)o1 [4-methyl-N'-(4-(5-(2-methoxyphenyl)-1,3,4-oxadiazol-2-yl)benzoyl)-4-methylbenzenesulfonohydrazide (15)] | 98.1 µM |
| COc1ccccc1-c1nnc(-c2ccc(C(=O)NNS(=O)(=O)c3ccccc3C)cc2)o1 [N'-(4-(5-(2-methoxyphenyl)-1,3,4-oxadiazol-2-yl)benzoyl)-2-methylbenzenesulfonohydrazide (14)] | 24.3 µM |
| COc1ccccc1-c1nnc(-c2ccc(C(=O)NNS(=O)(=O)c3ccccc3[N+](=O)[O-])cc2)o1 [N'-(4-(5-(2-methoxyphenyl)-1,3,4-oxadiazol-2-yl)benzoyl)-2-nitrobenzenesulfonohydrazide (10)] | 44.7 µM |
| COc1ccccc1-c1nnc(-c2ccc(C(=O)NNS(=O)(=O)c3cccc([N+](=O)[O-])c3)cc2)o1 [N'-(4-(5-(2-methoxyphenyl)-1,3,4-oxadiazol-2-yl)benzoyl)-3-nitrobenzenesulfonohydrazide (12)] | 89.3 µM |
